Target: T1, human EP2 receptor (Homo sapiens, UniProt P43116)
T1 construct: host or cells: HEK293
Experiment: Measurement of EP2 receptor binding action ([3H]prostaglandin E2 displacement, membrane fraction of HEK293 cells)
Conditions: tested as active form (R1 = hydroxy group) of the example compound; [3H]prostaglandin E2 10 nM, 60 minutes at 30° C.
Description: Measurement of EP2 receptor binding action was carried out in compliance with the method of Abramovitz et al. (Biochimica et Biophysica Acta, 1483, 285 (2000)). A test compound (a compound wherein R^1 in the compound represented by the formula (I) of the present invention is a hydroxy group) dissolved in dimethylsulfoxide and [^3H]prostaglandin E2 (NET-428, available from PerkinElmer) (final concentration: 10 nM) were added to a buffer solution (10 mM MES-KOH (pH 6.0), 10 mM MgCl2, 1 mM EDTA) in which was suspended 10 μg of a membrane fraction of HEK293 cells expressing human EP2 receptor (ES-562-M, available from Euroscreen) followed by incubating for 60 minutes at 30° C. The membrane fraction was recovered on glass fiber filter paper (GF/B, available from Whatmann) using a cell harvester (M30R, Brandel), and after washing with a buffer solution (10 mM MES-KOH (pH 6.0), 10 mM MgCl2), radioactivity was measured with a liquid scintillation analyzer (2000CA, Packard).
Ki=IC50/(1+([^3H]prostaglandin E2 concentration/Kd))
The dissociation constant (Kd value) was calculated by Scatchard analysis.

T1 sequence (P43116 whole entry): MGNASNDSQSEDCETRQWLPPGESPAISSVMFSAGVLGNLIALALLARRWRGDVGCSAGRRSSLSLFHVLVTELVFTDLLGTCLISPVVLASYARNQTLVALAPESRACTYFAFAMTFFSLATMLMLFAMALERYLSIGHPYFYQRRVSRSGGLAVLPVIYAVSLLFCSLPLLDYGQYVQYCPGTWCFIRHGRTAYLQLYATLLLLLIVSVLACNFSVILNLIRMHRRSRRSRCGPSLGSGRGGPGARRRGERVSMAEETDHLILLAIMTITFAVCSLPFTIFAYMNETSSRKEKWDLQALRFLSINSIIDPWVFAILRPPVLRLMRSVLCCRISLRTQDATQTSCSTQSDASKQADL

Substance | Ki
(2,2,2-Trifluoroethyl)(6-{[4-(pyrazol-1-yl)benzyl](pyridin-3-ylsulfonyl)aminomethyl}-pyridin-2-ylamino)acetate [Example 11] | 13 nM
(5-Phenylpentyl)(6-{(pyridin-2-ylsulfonyl)[4-(thiazol-2-yl)benzyl]aminomethyl}-pyridin-2-ylamino)acetate [Example 1] | 1.9 nM

Source: patent publication US20120226036A1, “S[…] COMPOUND” (UBE INDUSTRIES, LTD., priority 2009, published 2012)
